Reference: patent US20250041286A1, “CANCER TREATMENT USING KETOTIFEN IN COMBINATION WITH A CHECKPOINT INHIBITOR” (Materia Therapeutics Inc., priority 2021, published 2025)
Entries after “also recorded” stand apart in the source; their conditions may differ.

Assays:
Format in all cases: in vivo, mouse
MCA205 tumors [1] = assay: Tumor growth (volume, mass) under daily ketotifen, fibrosarcoma model; conditions: ketotifen 1, 5, 10 and 25 mg/kg i.p. once a day for 8 days
Method: Two mouse models of distinct sarcoma subtypes, fibrosarcoma (MCA205 cells) and osteosarcoma (K7M2wt cells), were used in this study.
MCA205, a mouse fibrosarcoma cell line (SCC173, Millipore), was cultured in RPMI-1640 expansion medium containing 2 mM L-glutamine, 1 mM sodium pyruvate, 10% fetal bovine serum, 1× non-essential amino acids (TMS-001-C, Sigma), 1% antibiotics (A5955, Sigma), and 1×β-mercaptoethanol. K7M2wt, a mouse osteosarcoma cell line (CRL2836™, ATCC®), was cultured in DMEM expansion medium supplemented with 10% FBS and 1% antibiotics. All cells were maintained at 37° C./5% CO2.
A fibrosarcoma syngeneic tumor model was generated by subcutaneous implantation of 2.5×10^5 MCA205 cells in 50 μL of serum-free medium into the flank of 6-week old C57BL/6 female mice. A osteosarcoma syngeneic tumor model was generated by implanting K7M2wt tumor chunks into the fat pad of 6-week old BALB/c female mice. […]
Each treatment group of 4-7 mice received subtherapeutic doses of ketotifen (1, 5, 10 and 25 mg/kg) for a period of 8 days. […] Planar dimensions (x, y) of tumor were monitored every 2-3 days using a digital caliper and tumor volume was estimated from the volume of an ellipsoid and assuming that the third dimension, z, is equal to sqrt(x y).

MCA205 tumors [2] = assay: Vessel normalization, NG2/CD31 pericyte coverage and open lumen fraction
Method: To assess whether MC inhibition could normalize the structure of tumor blood vessels, which can further improve perfusion, the effect of ketotifen on vascular permeability was assessed. […] Instead, an upregulation of IFN-γ transcription levels in MCA205 tumors following 10 mg/kg ketotifen treatment was observed (FIG. 1D). IFNγ is an angiostatic protein whose concentration in the TME has been related to vessel normalization and reduced vessel leakiness.

CD117 protein = assay: Western blot against CD117 protein (mast cell number) in tumors; conditions: subtherapeutic doses of ketotifen
MCA205 tumors [3] = assay: Vascular and functional perfusion, contrast-enhanced ultrasound; conditions: 10 mg/kg ketotifen, day 3 and day 7
Method: (§1) Vascular perfusion and functional perfusion were measured simultaneously during the course of ketotifen treatment, at day 3 and day 7, using contrast-enhanced ultrasound in mice bearing MCA205 and mice bearing K7M2wt tumors. Tumor perfusion was assessed after bolus injection of 8 μl SonoVue/Lumason contrast agent (Bracco Diagnostics, Geneva, Switzerland). SonoVue contains sulphur hexafluoride microbubbles encapsulated with a phosphoilipid shell and having a mean diameter of 2.5 μm. It is delivered as a retro-orbital injection since tail vein microbubble injections tend to have high variability. Prior to each ultrasound application, mice were anesthetized by i.p. injection of Avertin (200 mg/kg).

K7M2wt tumors [4] = assay: as above; conditions: 10 mg/kg ketotifen, day 3 and day 7
Method: as §1

K7M2wt tumors [5] = assay: Immunofluorescence of T cells (CD3, CD8/Ki67, CD3/CD31) in tumor sections; conditions: Ki67/CD8 staining; concluding statement
From the text: Immunofluorescence staining for Ki67 and CD8, performed as described above, confirmed the activation status of recruited CD8^+ T cells in osteosarcoma tumors (K7M2wt tumors) (FIGS. 9C-9D). K7M2wt tissue sections were then stained for pimonidazole adducts as a measure of hypoxia formation.
Immunofluorescence staining of CD3 and CD31 endothelial marker was used to assess the presence of T cells in the proximity of tumor vessel capillaries. PFA-fixed tissue cryosections of K7M2wt osteosarcoma tumors were incubated with primary rabbit anti-CD31 (Abcam, 1:50) and rat anti-CD3 (BioLegend, 1:50) overnight at 4° C. CD31 signal was detected with Alexa Fluor-488 anti-rabbit IgG (H+L) (Invitrogen, 1:400) and CD3 signal with Alexa Fluor-647 anti-rat IgG (H+L) (Invitrogen, 1:400) secondary antibodies. Cell nuclei were stained with DAPI. Tumor associated T cell to vessel content was determined by the overlapping CD31 and CD3 area fraction normalized to DAPI staining.

tumors = assay: Interstitial fluid pressure, wick-in-needle technique
Method: Interstitial fluid pressure (IFP) was measured in vivo using the “wick-in-needle” technique after mice were anesthetized with i.p. injection of Avertin and prior to tumor excision. Additional information regarding the wick-in-needle technique is described in Dong et al., Involvement of mast cell chymase in burn wound healing in hamsters 2013; 5:643-7 and Shankaran et al. IFNγ and lymphocytes prevent primary tumour development and shape tumour immunogenicity 2001; 410:1107-11, the contents of which are incorporated herein by reference in their entirety.

## CN1CCC(=C2c3ccccc3CC(=O)c3sccc32)CC1 [ketotifen]
MCA205 tumors [1]
  antitumor effect (tumor volume and mass): No subtherepautic dose of ketotifen exhibited an antitumor effect
MCA205 tumors [2]; MCA205 tumors, CD31 image analysis
  fraction of vessels with open lumen: increase the fraction of vessels with open lumen
MCA205 tumors [2]; ketotifen 5, 10 and 25 mg/kg compared to the lowest dose and untreated control
  pericyte coverage of the tumor vasculature (NG2/CD31 colocalization): increase
CD117 protein
  mast cell (MC) number as determined by CD117 protein levels: remain unaffected
MCA205 tumors [3]
  vascular and functional perfusion: significant increase; also recorded: highly effective at increasing vessel perfusion
K7M2wt tumors [4]
  vascular and functional perfusion: significant increase; also recorded: highly effective at increasing vessel perfusion
K7M2wt tumors [5]
  fraction of CD8+ T cells proliferating: double
tumors; 10 mg/kg dose compared with the other doses
  interstitial fluid pressure (IFP): greatest effect
tumors; all doses of ketotifen, daily for 7 days
  interstitial fluid pressure (IFP): reduces; also recorded: reduction in IFP levels
